Series [1] deals with intracellular M. tuberculosis in THP-1 cells. Put plainly: microbe, parasite or virus in culture. In kind it is cell-based. To be noted: Mycobacterium tuberculosis, H37RA; for MIC: read-out: MIC, Macrophage Cells.
Series [2] concerns M. tuberculosis. The series can be described thus: microbe, parasite or virus in culture. The series is classed as cell-based. The settings on record: for MIC: Mycobacterium tuberculosis, H37RA, read-out: MIC, Broth.
For series [3], the system named is M. tuberculosis H37Rv. The series can be described thus: Monotherapy against established TB in mice (dose-ranging activity study). In kind it is in vivo. The settings on record: for Log cfu (lung) / Log Reduction: BALB/c mice, M. tuberculosis H37Rv; for Log cfu (lung): 4 weeks of treatment; for Log Reduction: 4 weeks, vs untreated control.
Series [4] in a line: Rat IV Study (pharmacokinetics). The settings on record: male Sprague Dawley rats, plasma analyte = label.
Setting [5] is: 100 mg/kg daily 5 days per week.
Setting [6] is: Compound W dosed IV bolus 1 mg/kg in D5W.
The mark [7] stands for this setting: Compound W dosed IV bolus 5 mg/kg in D5W.

Converted amounts (≈) assume the structure as drawn.

`CO[C@@H]1[C@@H](OC(N)=O)[C@@H](O)[C@H](Oc2ccc3c(O)c(NC(=O)c4ccc(O)c(CC=C(C)C)c4)c(=O)oc3c2C)OC1(C)C` [Novobiocin]: in series [1] (THP-1, 120 h, read-out: Mtb H37Ra in THP1 Cells (IC50)), the half-maximal inhibitory concentration (IC50) was 2.1 µg/mL (≈ 3.43 µM). Further, the Erdman (MIC) in series [2] was found to be 61 µg/mL.

Consider `CC(=O)NC[C@H]1CN(c2ccc(N3CCOCC3)c(F)c2)C(=O)O1` [Linezolid], for which the MIC in series [1] worked out at 0.37 µg/mL (≈ 1.1 µM); in series [2] it was 0.53 µg/mL (≈ 1.57 µM).

In the case of `CCNC(=O)Nc1nc2cc(-c3cnc(C(C)(C)OP(=O)([O-])[O-])nc3)c(F)c([C@H]3CCCO3)c2[nH]1.[Na+].[Na+]` [Compound W, disodium (R)-2-(5-(2-(3-ethylureido)-6-fluoro-7-(tetrahydrofuran-2-yl)-1H-benzo[d]imidazol-5-yl)pyrimidin-2-yl)propan-2-yl phosphate], in series [3] (10 mg/kg daily 5 days per week), the “Log cfu (lung)” value is listed as 6.38 and the “Log Reduction” value worked out at 0. Besides, in series [3] (30 mg/kg daily 5 days per week), the “Log cfu (lung)” value was 5.51 and the “Log Reduction” value came to 0.49. Moreover, in series [3] (setting [5]), the “Log cfu (lung)” value was 5.35 and the “Log Reduction” value is given as 0.65. Also, the “activity compared with no treatment” value in series [3] (at 30 and 100 mg/kg, p<0.01 by one-way ANOVA with Dunnett's post-test) was “superior to no treatment”. For the same compound, in series [4] (setting [6]), the AUCextrap worked out at 419 ng·h/mL, the Cl_obs stood at 46.7 mL/min/kg, the Vss_obs is recorded as 0.38 L/kg and the t½ was 0.9 h. Besides, in series [4] (setting [7]), the AUCextrap worked out at 1120 ng·h/mL, the Cl_obs was 84.6 mL/min/kg, the Vss_obs is listed as 5.8 L/kg and the t½ is 7.2 h.

Take `CC[C@@H](CO)NCCN[C@@H](CC)CO` [Ethambutol]: the values for the MIC in series [1] and in series [2] were 1.26 µg/mL (≈ 6.17 µM) and 2.55 µg/mL (≈ 12.5 µM), respectively.

Source of the values: patent US9937192B2, “Combination therapy to treat mycobacterium diseases” (priority 2012, dated 2018).
